From US5519115A, “Reverse antimicrobial peptides” (priority 1993, dated 1996) come the findings set out here.

In one series the test system is Trichoderma reesei. Briefly: Antifungal bioassay (MCIC, spore germination). In kind it is cell-based. As to conditions: 10^6 spores/test; mean after 24 hours of treatment. The protocol:
(§1) Fungi were grown on an appropriate medium, in this case a potato dextrose agar plate, for several weeks. At the end of that period, the plate was flooded with about 5 mL of sterile distilled water to harvest spores. The spore concentration was determined by use of a hemocytometer and the spore suspension was stored in a sterile tube at 4° C. until it was needed. Then 82 microliters of potato dextrose broth and 3 microliters of spore suspension (ranging from 10^5 to 10^7 spores total) were added to 12 wells in a 96 well microtiter plate for each AMPPP to be tested, with 1-4 replicate sets of 12 wells prepared for each AMPPP within a single experiment. In several instances, more than one spore concentration was used in order to determine the efficacy of certain AMPPPs as a function of the number of target spores. Stock solutions of each AMPPP were prepared at a concentration of 1 mg/mL and 0-15 microliters of each peptide stock solution were added to a single well in the microtiter plate followed by a sufficient volume of water to bring the total well volume to 100 microliters. […] Typical peptide volumes assayed were 0, 1, 2, 3, 4, 5, 6, 7, 8, 9, 10, and 15 microliters, which corresponds to a final peptide concentration in the range of 0-150 micrograms/mL. The microtiter plates were sealed with parafilm and incubated at room temperature for 48 hours. The fungal growth was observed after 24 and 48 hours by microscope using a 4× and/or a 10× objective lens. The amount of spore germination and fungal growth was recorded as a quantitative measurement at each observation time using a system of pluses and minuses: [-] meant no germination having occurred, [+] meant swollen spores with an extended germ tube, [++] meant the beginnings of mycelial growth with the overall appearance of a loose lattice, and [+++] meant a dense mycelial growth with the overall appearance of a thick opaque meshwork. The MCIC value for each AMPPP tested was then recorded, where the MCIC value is defined as the lowest peptide concentration at which no spore germination occurred (rating=[-]). […]

In a further series the test system is Cercospora sp. Briefly: Antifungal bioassay (MCIC, spore germination). Particulars: 10^6 spores/test; mean after 24 hours of treatment. It counts as cell-based. The protocol:
as §1

The subject of series [1] is Helminthosporium carbonum. Briefly: Antifungal bioassay (MCIC, spore germination). In kind it is cell-based. As to conditions: 10^6 spores/test; mean after 24 hours of treatment. The protocol:
as §1

Another series has as its system isolated chloroplasts. Briefly: Oxygen evolution bioassay, phytotoxicity (isolated chloroplasts). It counts as cell-based, Spinach (Spinacia oleracea L. var. Melody). The protocol: The following procedure for the preparation of chloroplasts to use in an oxygen electrode is similar to that of Gupta et al., "Development and Use of Chlorotetracycline Fluorescence as a Measurement Assay of Chloroplast Envelope-Bound Mg^2+, "Plant Physiol. 89, (1989) 753-761. Spinach (Spinacia oleracea L. var. `Melody`) was grown in 1:1 peat/vermiculite potting mix in a growth chamber with a 10 hour light period. The chamber temperature was maintained at 21° C. (day) and 16° C. (night) during the growth period. All plants were used for chloroplast isolation after 6-8 weeks of growth.
In order to obtain an enriched chloroplast fraction, about 12 g of deribbed spinach leaves were thoroughly washed and surface dried. The leaves were then cut into small pieces, each about 1/2 inch square, and were placed in a small blender jar containing 50 mL of chilled homogenization medium (0.33M sorbitol, 50 mM Hepes-NaOH, pH 6.8, 2mM Na2 EDTA, 1 mM MnCl2, 1 mM MgCl2). The tissue was blended twice for three second intervals on high speed in a blender. The resulting homogenate was filtered through four layers of cheesecloth and two layers of miracloth (Behring Diagnostics, La Jolla, Calif.) into two chilled 30 mL glass centrifuge tubes. The filtered solution was centrifuged for 1.0 minute at 750 g (2,200 RPM) in a JS 13.1 swinging bucket rotor in a Beckman J2-21M centrifuge (Beckman Instruments, Inc., Somerset, N.J.). The supernatant was then decanted and the pellet was gently resuspended by swirling at 0° C. About 15 mL of homogenization medium was added to each tube of chloroplasts before the chloroplasts were layered onto a 40% Percoll gradient (6 mL Percoll, 9 mL homogenization medium, and 0.03 g bovine serum albumin) in a 30 mL glass centrifuge tube. These tubes were centrifuged for 4.0 minutes at 2500 g (4000 RPM) in a JS 13.1 swinging bucket rotor in a Beckman J2-21M centrifuge. The supernatant was removed and the resulting pellet was resuspended in a small amount of homogenization medium (about 500 microliters).
Plastid concentration was generally expressed on a chlorophyll basis. Chlorophyll was determined by the method of Arnon "Copper Enzymes in Isolated Chloroplasts, Polyphenol Oxidase in Beta Vulgaris," Plant Physiol. 24, (1949) 1-15. About 50 microliters of chloroplast stock suspension was added to 10 mL of 80% acetone and this solution was incubated 5.0 minutes in the dark and then centrifuged for 5.0 minutes at 500 g (1630 RPM) in a Beckman GP centrifuge. The absorbance of the acetone-chloroplast solution was monitored at 645 nm, at 663 nm and at 730 nm. The chlorophyll concentration was then calculated as 10× [(absorbance at 645 nm×20.2)+(absorbance at 663 nm×8.02)--background at 730 nm]. This gave the amount of chlorophyll in micrograms for the original 50 microliters of chloroplasts. The concentration of chloroplasts was then adjusted with homogenization medium so that 50 microliters of suspension contained 26 micrograms of chlorophyll. These chloroplasts were only active for 11/2 to 2 hours and were therefore used immediately.
An oxygen electrode (Hansatech Instruments Ltd., Kings Lynn, Norfolk, England) was used to measure oxygen evolution from isolated chloroplasts. For a detailed discussion of the method see, D. Walker, "The Use of the Oxygen Electrode and Fluorescence Probes in Simple Measurements of Photosynthesis," supra. A saturated KCl solution was placed in the electrode well and a one-inch square of rolling paper or lens paper was placed in to the electrode well so that it soaked up KCl and formed an ionic bridge. A one-inch square of teflon membrane was then prepared, being careful not to touch its surface, and was placed over the soaked paper. Using the membrane applicator, an O ring was placed over the head of the electrode, thereby securing paper and membrane across the electrode. The CB-1D control box was turned on and the system was allowed to warm up approximately one hour before calibration. […]

The next series has as its system P3 Fusarium. Briefly: Antifungal bioassay (MCIC, spore germination). It counts as cell-based, P3 Fusarium (field isolate). As to conditions: 10^7 spores/test; mean after 24 hours of treatment, at least three replicates. The protocol:
Fungi were grown on an appropriate medium, in this case a potato dextrose agar plate, for several weeks. At the end of that period, the plate was flooded with about 5 mL of sterile distilled water to harvest spores. The spore concentration was determined by use of a hemocytometer and the spore suspension was stored in a sterile tube at 4° C. until it was needed. Then 82 microliters of potato dextrose broth and 3 microliters of spore suspension (ranging from 10^5 to 10^7 spores total) were added to 12 wells in a 96 well microtiter plate for each AMPPP to be tested, with 1-4 replicate sets of 12 wells prepared for each AMPPP within a single experiment. […] The amount of spore germination and fungal growth was recorded as a quantitative measurement at each observation time using a system of pluses and minuses: [-] meant no germination having occurred, [+] meant swollen spores with an extended germ tube, [++] meant the beginnings of mycelial growth with the overall appearance of a loose lattice, and [+++] meant a dense mycelial growth with the overall appearance of a thick opaque meshwork. The MCIC value for each AMPPP tested was then recorded, where the MCIC value is defined as the lowest peptide concentration at which no spore germination occurred (rating=[-]). […]

With “Met-Mag 1 dimer (head-to-tail) [Peptide No. 9]”, the “MCIC Values With: Trichoderma reesei” value with Trichoderma reesei was 24+/-12 micrograms per mL. Moreover, the “MCIC Values With: Cercospora sp.” value in the series on Cercospora sp. was 25+/-10 micrograms per mL. For the same substance, the “MCIC Values With: Helminthosporium carbonum” value in series [1] is on record as 63+/-29 micrograms per mL. Also, the “inhibition of oxygen evolution” value in the series on isolated chloroplasts is reported as 100%. Further, the “MCIC Values With: P3 Fusarium” value in the series on P3 Fusarium was 15+/-6 micrograms per mL.
